Assay results reported in patent US9637488B2, “Heterocyclic compounds as inhibitors of class I PI3KS” (priority 2015, dated 2017).

What was measured:
Type in all cases: biochemical
PI3Kα (p110α/p85α) = PI3Kα (p110α/p85α) (Homo sapiens (Human), UniProt P42336); assay: cell-free PI3K HTRF assay, PI3Kα; conditions: ratio of IC50 against PI3Kα related to PI3Kδ; 10-dose, 3-fold serial dilution starting at 10 μM
Protocol: (§1) Exemplary compounds of the invention were tested for inhibitory activity and potency against class I PI3Ks (p110α/p85α, p110β/p85α, p110δ/p85α and p110γ) using a cell-free based PI3K HTRF assay. This assay was used to detect the formation of the product 3,4,5-inositol triphosphate molecule (PIP3) by displacement of biotin-PIP3 from an energy transfer complex consisting of Europium labeled anti-GST monoclonal antibody, a GST-tagged pleckstrin homology (PH) domain, biotinylated PIP3 and Streptavidin-Allophycocyanin (APC). Excitation of Europium in the complex results in an energy transfer to the APC and a fluorescent emission at 665 nm. The PIP3 product formed by human PI 3-Kinase activity displaces biotin-PIP3 from the complex resulting in a loss of energy transfer and thus a decrease in signal.
(§2) Human class I PI3K isoforms were co-expressed in a Baculovirus infected cell expression system. The PI3K isoforms were assayed in the presence of HEPES (50 mM, pH 7.0), NaN3 (0.02%), BSA (0.01%), orthovanadate (0.1 mM), and DMSO (1%). The exemplary compounds dissolved in DMSO were delivered into the kinase reaction mixture by Acoustic technology (Echo550; nanolitter range), and were pre-incubated for 10 min at room temperature before adding ATP (10 μM) to initiate the reaction. After 30 min at 30° C., the reactions were quenched with a stop solution, incubated overnight with a detection mixture before measuring HTRF (Ex: 320 nm; Em: 615/665 nm). The emission ratio is converted into μM PIP3 production based on PIP3 standard curves, and the nonlinear regression to obtain the standard curve and IC50 values are performed using Graphpad Prism software.
(§3) The assays were performed at Reaction Biology Corporation, One Great Valley Parkway, Suite 2, Malvern, Pa. 19355, USA.
(§4) Exemplary compounds of the invention selected were further tested their inhibitory activity or potency against PI3Kα, PI3Kβ, and PI3Kγ in 10-dose IC50 mode with 3-fold serial dilution starting at 10 μM. […] Table 5 below illustrates the selectivity of the exemplary compounds using the ratios of the IC50 values of the compounds against PI3Kα, PI3Kβ, and PI3Kγ related to PI3Kδ. […] Such unexpected selectivity against PI3Kδ and/or PI3Kγ is attributed to the unusual overall shape of the molecules of formula (I) and (II), and the optimal selection of R1, R2, R3, R4, X, and Y defined in formula (I) and (II) in order to bind favorably in the ATP-binding pocket of PI3Kδ and/or PI3Kγ versus other class I isozymes.

PI3Kγ (p110γ) = PI3Kγ (p110γ) (Homo sapiens (Human), UniProt P48736); assay: cell-free PI3K HTRF assay, PI3Kγ; conditions: ratio of IC50 against PI3Kγ related to PI3Kδ; 10-dose, 3-fold serial dilution starting at 10 μM
Protocol: as §1, §2, §3, §4

PI3Kδ (p110δ/p85α) = PI3Kδ (p110δ/p85α) (Homo sapiens (Human), UniProt O00329); assay: cell-free PI3K HTRF assay, PI3Kδ; conditions: 10-dose IC50 mode, 3-fold serial dilution starting at 1 μM; ATP 10 μM; read-out: IC50 value for the inhibition of PI3Kδ
PI3Kβ (p110β/p85α) = PI3Kβ (p110β/p85α) (Homo sapiens (Human), UniProt P42338); assay: cell-free PI3K HTRF assay, PI3Kβ; conditions: ratio of IC50 against PI3Kβ related to PI3Kδ; 10-dose, 3-fold serial dilution starting at 10 μM
Protocol: as §1, §2, §3, §4

PI3Kα (p110α/p85α), sequence (P42336 whole entry): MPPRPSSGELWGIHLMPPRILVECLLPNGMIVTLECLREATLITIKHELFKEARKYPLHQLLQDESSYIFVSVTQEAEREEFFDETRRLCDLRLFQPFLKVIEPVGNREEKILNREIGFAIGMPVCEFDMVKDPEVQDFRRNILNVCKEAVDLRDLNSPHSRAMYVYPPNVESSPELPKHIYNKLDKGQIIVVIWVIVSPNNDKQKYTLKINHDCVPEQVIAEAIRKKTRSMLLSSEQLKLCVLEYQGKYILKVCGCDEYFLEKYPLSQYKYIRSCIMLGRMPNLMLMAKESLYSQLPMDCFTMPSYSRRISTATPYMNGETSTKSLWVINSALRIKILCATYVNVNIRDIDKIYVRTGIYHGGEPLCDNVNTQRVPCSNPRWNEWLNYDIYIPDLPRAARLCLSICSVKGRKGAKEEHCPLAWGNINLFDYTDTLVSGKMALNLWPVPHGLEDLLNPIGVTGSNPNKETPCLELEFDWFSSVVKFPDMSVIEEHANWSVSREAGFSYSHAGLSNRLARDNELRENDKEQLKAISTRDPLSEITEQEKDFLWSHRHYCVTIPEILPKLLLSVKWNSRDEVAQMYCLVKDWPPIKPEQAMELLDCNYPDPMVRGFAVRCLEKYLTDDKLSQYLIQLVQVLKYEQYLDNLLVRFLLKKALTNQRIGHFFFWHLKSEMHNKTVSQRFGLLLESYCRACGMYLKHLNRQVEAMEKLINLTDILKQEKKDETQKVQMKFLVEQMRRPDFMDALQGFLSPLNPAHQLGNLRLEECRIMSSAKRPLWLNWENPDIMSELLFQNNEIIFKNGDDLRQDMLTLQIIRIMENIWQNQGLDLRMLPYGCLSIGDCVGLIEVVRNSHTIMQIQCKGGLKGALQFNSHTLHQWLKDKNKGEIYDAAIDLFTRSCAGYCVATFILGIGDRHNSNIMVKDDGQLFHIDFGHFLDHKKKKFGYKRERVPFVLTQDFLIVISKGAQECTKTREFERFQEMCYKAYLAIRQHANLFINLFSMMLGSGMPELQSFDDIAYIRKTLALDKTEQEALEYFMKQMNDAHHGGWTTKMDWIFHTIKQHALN
PI3Kα (p110α/p85α), sequence (P27986 whole entry partner): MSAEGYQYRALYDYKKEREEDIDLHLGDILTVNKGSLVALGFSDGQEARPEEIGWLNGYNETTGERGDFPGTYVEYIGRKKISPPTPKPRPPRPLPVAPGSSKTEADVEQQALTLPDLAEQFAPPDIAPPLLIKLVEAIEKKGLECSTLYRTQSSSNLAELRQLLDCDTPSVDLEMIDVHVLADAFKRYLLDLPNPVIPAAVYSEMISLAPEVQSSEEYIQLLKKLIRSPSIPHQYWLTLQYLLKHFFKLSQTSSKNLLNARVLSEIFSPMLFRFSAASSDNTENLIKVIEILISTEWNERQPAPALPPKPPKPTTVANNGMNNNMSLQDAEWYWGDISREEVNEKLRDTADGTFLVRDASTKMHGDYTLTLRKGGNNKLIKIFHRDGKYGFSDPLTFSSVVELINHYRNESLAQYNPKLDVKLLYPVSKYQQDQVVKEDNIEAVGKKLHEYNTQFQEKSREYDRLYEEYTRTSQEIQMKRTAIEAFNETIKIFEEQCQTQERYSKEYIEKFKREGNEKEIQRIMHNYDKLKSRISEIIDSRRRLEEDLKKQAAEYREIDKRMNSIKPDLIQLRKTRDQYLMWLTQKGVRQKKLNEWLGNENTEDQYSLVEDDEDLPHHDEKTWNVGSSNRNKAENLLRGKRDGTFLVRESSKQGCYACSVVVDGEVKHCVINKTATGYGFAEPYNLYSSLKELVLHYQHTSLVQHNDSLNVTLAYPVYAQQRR
PI3Kδ (p110δ/p85α), sequence (O00329 whole entry): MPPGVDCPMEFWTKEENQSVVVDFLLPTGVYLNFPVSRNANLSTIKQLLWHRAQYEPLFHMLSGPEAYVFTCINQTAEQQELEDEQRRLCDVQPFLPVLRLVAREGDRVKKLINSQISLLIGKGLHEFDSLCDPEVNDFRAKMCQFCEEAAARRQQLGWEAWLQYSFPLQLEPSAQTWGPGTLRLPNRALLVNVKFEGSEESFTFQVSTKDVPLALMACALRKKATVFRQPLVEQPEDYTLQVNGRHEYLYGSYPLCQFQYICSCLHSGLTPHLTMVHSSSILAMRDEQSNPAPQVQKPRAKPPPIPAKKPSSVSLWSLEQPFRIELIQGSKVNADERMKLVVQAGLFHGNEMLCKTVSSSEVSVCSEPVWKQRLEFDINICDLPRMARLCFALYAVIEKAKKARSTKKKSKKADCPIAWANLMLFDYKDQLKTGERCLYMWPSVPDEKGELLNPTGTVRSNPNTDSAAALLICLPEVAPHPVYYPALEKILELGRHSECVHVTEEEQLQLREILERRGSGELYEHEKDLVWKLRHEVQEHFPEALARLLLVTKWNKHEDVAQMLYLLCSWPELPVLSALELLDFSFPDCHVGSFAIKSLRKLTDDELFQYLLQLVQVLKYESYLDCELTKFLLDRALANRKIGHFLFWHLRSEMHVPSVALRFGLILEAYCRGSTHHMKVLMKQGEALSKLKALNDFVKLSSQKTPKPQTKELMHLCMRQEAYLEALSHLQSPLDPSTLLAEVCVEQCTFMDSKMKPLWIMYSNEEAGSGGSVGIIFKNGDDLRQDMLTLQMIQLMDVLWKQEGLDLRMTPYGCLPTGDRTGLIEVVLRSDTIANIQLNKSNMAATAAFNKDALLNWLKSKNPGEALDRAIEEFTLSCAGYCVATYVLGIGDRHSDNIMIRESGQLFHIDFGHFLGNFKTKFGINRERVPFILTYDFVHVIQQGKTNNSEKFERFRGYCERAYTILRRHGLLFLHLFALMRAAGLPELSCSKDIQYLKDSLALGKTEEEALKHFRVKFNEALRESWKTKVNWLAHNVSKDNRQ
PI3Kδ (p110δ/p85α), sequence (P27986 whole entry partner): as the sequence (P27986 whole entry partner) above
PI3Kγ (p110γ), sequence (P48736 whole entry): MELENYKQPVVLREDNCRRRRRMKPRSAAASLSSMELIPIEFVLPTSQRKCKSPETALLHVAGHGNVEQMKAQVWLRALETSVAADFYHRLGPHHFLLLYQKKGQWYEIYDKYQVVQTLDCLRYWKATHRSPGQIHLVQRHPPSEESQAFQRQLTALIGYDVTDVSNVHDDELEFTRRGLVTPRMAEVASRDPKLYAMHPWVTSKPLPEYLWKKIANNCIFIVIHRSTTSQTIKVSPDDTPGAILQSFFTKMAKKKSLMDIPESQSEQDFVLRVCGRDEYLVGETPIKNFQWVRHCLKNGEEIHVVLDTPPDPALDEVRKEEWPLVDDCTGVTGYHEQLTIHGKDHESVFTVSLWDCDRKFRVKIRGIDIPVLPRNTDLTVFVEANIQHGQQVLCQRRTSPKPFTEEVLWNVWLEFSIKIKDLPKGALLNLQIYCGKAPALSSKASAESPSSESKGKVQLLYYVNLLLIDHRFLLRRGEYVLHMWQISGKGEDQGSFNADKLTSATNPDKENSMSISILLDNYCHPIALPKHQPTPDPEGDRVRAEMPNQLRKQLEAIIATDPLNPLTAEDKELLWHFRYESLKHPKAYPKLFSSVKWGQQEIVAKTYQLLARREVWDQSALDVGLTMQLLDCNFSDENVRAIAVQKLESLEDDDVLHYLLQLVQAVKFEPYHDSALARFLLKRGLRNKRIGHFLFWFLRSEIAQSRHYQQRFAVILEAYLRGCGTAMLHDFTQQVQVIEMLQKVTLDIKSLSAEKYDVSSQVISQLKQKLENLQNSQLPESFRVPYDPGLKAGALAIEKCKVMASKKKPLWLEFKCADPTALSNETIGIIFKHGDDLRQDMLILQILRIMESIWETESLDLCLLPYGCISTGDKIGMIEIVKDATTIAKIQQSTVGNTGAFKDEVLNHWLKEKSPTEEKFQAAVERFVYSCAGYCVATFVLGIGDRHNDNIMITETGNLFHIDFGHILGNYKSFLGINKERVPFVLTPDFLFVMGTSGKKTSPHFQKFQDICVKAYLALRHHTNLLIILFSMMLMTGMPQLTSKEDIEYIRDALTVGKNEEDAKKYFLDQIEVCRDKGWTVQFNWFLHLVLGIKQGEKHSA
PI3Kβ (p110β/p85α), sequence (P42338 whole entry): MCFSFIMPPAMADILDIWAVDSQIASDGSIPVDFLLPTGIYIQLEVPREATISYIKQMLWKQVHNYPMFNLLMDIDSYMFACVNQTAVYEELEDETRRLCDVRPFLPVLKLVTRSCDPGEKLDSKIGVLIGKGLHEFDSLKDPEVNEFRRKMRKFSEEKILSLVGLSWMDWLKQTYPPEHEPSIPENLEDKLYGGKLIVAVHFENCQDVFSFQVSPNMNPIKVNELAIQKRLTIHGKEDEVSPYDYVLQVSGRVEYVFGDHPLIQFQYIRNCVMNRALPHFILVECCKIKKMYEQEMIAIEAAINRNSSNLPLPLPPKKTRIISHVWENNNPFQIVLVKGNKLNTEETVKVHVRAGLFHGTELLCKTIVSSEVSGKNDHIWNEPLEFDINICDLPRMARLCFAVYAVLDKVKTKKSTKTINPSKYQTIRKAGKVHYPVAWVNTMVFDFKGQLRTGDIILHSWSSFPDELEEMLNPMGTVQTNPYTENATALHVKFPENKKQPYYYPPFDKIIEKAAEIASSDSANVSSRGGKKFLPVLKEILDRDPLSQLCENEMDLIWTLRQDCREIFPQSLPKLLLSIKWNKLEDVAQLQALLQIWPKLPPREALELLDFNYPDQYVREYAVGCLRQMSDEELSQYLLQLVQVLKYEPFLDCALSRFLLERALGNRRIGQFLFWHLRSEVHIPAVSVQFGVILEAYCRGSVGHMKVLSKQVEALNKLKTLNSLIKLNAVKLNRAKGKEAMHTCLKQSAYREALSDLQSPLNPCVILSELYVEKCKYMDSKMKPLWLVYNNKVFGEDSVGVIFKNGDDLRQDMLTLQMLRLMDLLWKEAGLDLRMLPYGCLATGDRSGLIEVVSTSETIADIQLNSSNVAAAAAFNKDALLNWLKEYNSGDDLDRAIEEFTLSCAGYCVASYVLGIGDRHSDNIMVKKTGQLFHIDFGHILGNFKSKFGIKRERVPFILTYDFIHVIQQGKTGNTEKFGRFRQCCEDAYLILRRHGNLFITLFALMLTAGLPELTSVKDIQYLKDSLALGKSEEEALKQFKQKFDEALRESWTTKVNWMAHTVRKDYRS
PI3Kβ (p110β/p85α), sequence (P27986 whole entry partner): as the sequence (P27986 whole entry partner) above

| SMILES | Ratio (α/δ) (PI3Kα (p110α/p85α)) | Ratio (γ/δ) (PI3Kγ (p110γ)) | IC50 (PI3Kδ (p110δ/p85α)) | Ratio (β/δ) (PI3Kβ (p110β/p85α)) |
| --- | --- | --- | --- | --- |
| Fc1ccc2cc([C@@H]3CCCN3c3ncnc4[nH]cnc34)c(-c3ccccn3)nc2c1 [Compound 62] | >781 | 53 | 12.8 nM | 520 |
| Cc1cccc2cc([C@@H]3CCCN3c3ncnc4[nH]cnc34)c(-c3ccccc3)nc12 [Compound 63] | 556 | 5.6 | 18 nM | 264 |
| Cc1cccc2cc([C@@H]3CCCN3c3ncnc4[nH]cnc34)c(N3CCOCC3)nc12 [Compound 64] | 748 | 48 | 1.6 nM | 317 |
| Cc1cccc2cc([C@@H]3CCCN3c3ncnc(N)c3C#N)c(N3CCOCC3)nc12 [Compound 65] | >1738 | >188 | < 0.05 nM | >789 |
| Clc1cccc2cc([C@@H]3CCCN3c3ncnc4[nH]cnc34)c(N3CCOCC3)nc12 [Compound 66] | 493 | 24 | 1.8 nM | 250 |
| N#Cc1c(N)ncnc1N1CCC[C@H]1c1cc2cccc(Cl)c2nc1-c1ccccc1 [Compound 67] | >8583 | >5.6 | < 0.05 nM | 1368 |
| N#Cc1c(N)nc(N)nc1N1CCC[C@H]1c1cc2cccc(Cl)c2nc1-c1ccccc1 [Compound 68] | >545 | ~10 | < 0.05 nM | >106 |
| N#Cc1c(N)ncnc1N1CCC[C@H]1c1cc2cccc(Cl)c2nc1N1CCOCC1 [Compound 69] | >4154 | >31 | < 0.05 nM | >111 |
